Assay: xn = mol fraction of the nth substance listed

COC(=O)CCCCC(=O)OC + C1CCOC1
viscosity [mPa·s], 101 kPa
Settings | 293.15 K | 298.15 K | 303.15 K | 308.15 K | 313.15 K | 318.15 K | 323.15 K
x1 = 0.1 | 0.6562 | 0.6229 | 0.5909 | 0.5598 | 0.5294 | 0.4989 | 0.4706
x1 = 0.2 | 0.8354 | 0.7852 | 0.7403 | 0.6982 | 0.6588 | 0.6205 | 0.5877
x1 = 0.3 | 1.042 | 0.9731 | 0.9111 | 0.8539 | 0.8024 | 0.7543 | 0.7132
x1 = 0.3994 | 1.277 | 1.183 | 1.1 | 1.026 | 0.958 | 0.906 | 0.8459
x1 = 0.5001 | 1.545 | 1.42 | 1.311 | 1.217 | 1.134 | 1.063 | 0.9929
x1 = 0.5909 | 1.811 | 1.652 | 1.517 | 1.4 | 1.299 | 1.206 | 1.132
x1 = 0.5999 | 1.838 | 1.676 | 1.541 | 1.421 | 1.315 | 1.221 | 1.146
x1 = 0.7003 | 2.163 | 1.956 | 1.78 | 1.63 | 1.506 | 1.382 | 1.302
x1 = 0.7999 | 2.514 | 2.255 | 2.042 | 1.858 | 1.7 | 1.556 | 1.458
x1 = 0.8937 | 2.866 | 2.555 | 2.298 | 2.08 | 1.892 | 1.731 | 1.609
x1 = 0.8996 | 2.888 | 2.574 | 2.314 | 2.095 | 1.905 | 1.742 | 1.619

CCCCCCCCCCCCCC[P+](CCCCCC)(CCCCCC)CCCCCC.[O-]c1ccccc1 + O
Settings | viscosity [mPa·s]
298.15 K, 100 kPa, x2 = 0.69 | 183

CCC(=O)CC + CC(=O)CC(C)C
298.15 K, 101 kPa
Settings | viscosity [mPa·s]
x2 = 0.0749 | 0.581
x2 = 0.1609 | 0.575
x2 = 0.3004 | 0.571
x2 = 0.4466 | 0.566
x2 = 0.5932 | 0.562
x2 = 0.7509 | 0.558
x2 = 0.8066 | 0.553
x2 = 0.8789 | 0.548

C1CCCC1 + CC(C)CCO
viscosity [mPa·s], 101 kPa
Settings | 298.15 K | 308.15 K
x1 = 0.0443 | 3.482 | 2.238
x1 = 0.0808 | 3.173 | 2.06
x1 = 0.1182 | 2.966 | 1.962
x1 = 0.2087 | 2.37 | 1.573
x1 = 0.3063 | 1.857 | 1.278
x1 = 0.3959 | 1.511 | 1.09
x1 = 0.521 | 1.086 | 0.7741
x1 = 0.616 | 0.8169 | 0.6771
x1 = 0.7042 | 0.6669 | 0.5329
x1 = 0.8044 | 0.5675 | 0.4453
x1 = 0.8984 | 0.4649 | 0.3966
x1 = 0.9358 | 0.4361 | 0.3784
x2 = 0.0075 | 0.4035 | 0.353

CCC(=O)CC + CN(C)c1ccccc1
viscosity [mPa·s], 101 kPa
Settings | 303.15 K | 308.15 K
x2 = 0.0612 | 0.548 | 0.499
x2 = 0.1145 | 0.645 | 0.588
x2 = 0.1652 | 0.732 | 0.668
x2 = 0.2302 | 0.832 | 0.764
x2 = 0.3025 | 0.928 | 0.859
x2 = 0.3741 | 1.006 | 0.935
x2 = 0.4256 | 1.053 | 0.98
x2 = 0.5023 | 1.105 | 1.029
x2 = 0.5714 | 1.137 | 1.056
x2 = 0.6325 | 1.155 | 1.069
x2 = 0.7045 | 1.165 | 1.074
x2 = 0.7812 | 1.167 | 1.073
x2 = 0.8512 | 1.165 | 1.073

Nc1ccccc1[N+](=O)[O-] + CC(C)=O
viscosity [mPa·s], 101 kPa
Settings | 298.15 K | 303.15 K | 308.15 K | 313.15 K
x1 = 0.3297 | 1.229 | 1.142 | 1.059 | 0.9826
x1 = 0.5407 | 2.366 | 2.175 | 1.994 | 1.817

C1CCCC1 + CC(C)O
101 kPa
Settings | viscosity [mPa·s]
298.15 K, x1 = 0.0779 | 1.686
298.15 K, x1 = 0.1506 | 1.405
298.15 K, x1 = 0.1861 | 1.302
298.15 K, x1 = 0.2303 | 1.179
298.15 K, x1 = 0.26 | 1.129
298.15 K, x1 = 0.3112 | 1.009
298.15 K, x1 = 0.3879 | 0.8567
298.15 K, x1 = 0.4568 | 0.7573
298.15 K, x1 = 0.5489 | 0.6423
298.15 K, x1 = 0.6378 | 0.5548
298.15 K, x1 = 0.7196 | 0.5314
298.15 K, x1 = 0.8237 | 0.455
298.15 K, x1 = 0.9124 | 0.4265
308.15 K, x1 = 0.0365 | 1.373
308.15 K, x1 = 0.081 | 1.28
308.15 K, x1 = 0.1332 | 1.125
308.15 K, x1 = 0.1521 | 1.101
308.15 K, x1 = 0.1757 | 1.034
308.15 K, x1 = 0.1856 | 1.015
308.15 K, x1 = 0.2382 | 0.9575
308.15 K, x1 = 0.2694 | 0.9099
308.15 K, x1 = 0.3483 | 0.7902
308.15 K, x1 = 0.3863 | 0.7261
308.15 K, x1 = 0.4288 | 0.6806
308.15 K, x1 = 0.478 | 0.6312
308.15 K, x1 = 0.5296 | 0.5689
308.15 K, x1 = 0.5891 | 0.5186
308.15 K, x1 = 0.6269 | 0.4877
308.15 K, x1 = 0.6889 | 0.4468
308.15 K, x1 = 0.7 | 0.4437
308.15 K, x1 = 0.7248 | 0.4309
308.15 K, x1 = 0.7619 | 0.4179
308.15 K, x1 = 0.98 | 0.3745
308.15 K, x2 = 0.0108 | 0.3641

C1CCCC1 + C1COCO1
viscosity [mPa·s], 101.3 kPa
Settings | x1 = 0.0988 | x1 = 0.1997 | x1 = 0.3005 | x1 = 0.3997 | x1 = 0.4992 | x1 = 0.5979 | x1 = 0.7027 | x1 = 0.7987 | x1 = 0.8995
298.15 K | 0.5513 | 0.5176 | 0.4908 | 0.4685 | 0.4495 | 0.434 | 0.4216 | 0.4149 | 0.4124
313.15 K | 0.4666 | 0.438 | 0.415 | 0.3968 | 0.3804 | 0.3679 | 0.3581 | 0.352 | 0.351

OCc1ccccc1 + CC(C)=O
viscosity [mPa·s], 101 kPa
Settings | x1 = 0.2007 | x1 = 0.2986 | x1 = 0.4007 | x1 = 0.5002 | x1 = 0.7013 | x1 = 0.9003
303.15 K | 0.506 | 0.651 | 0.894 | 1.204 | 2.122 | 3.544
308.15 K | 0.495 | 0.632 | 0.861 | 1.11 | 1.857 | 3.118
313.15 K | 0.479 | 0.603 | 0.807 | 1.054 | 1.74 | 2.826
